Test results from PubChem BioAssay AID651781 (The Scripps Research Institute Molecular Screening Center, 2012).
Activity calls are given as the source filed them.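 The calls were made as follows: active = IC50 at or below 10 µM; inactive = IC50 above 10 µM.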

Biological target: GAL4 DBD-VP16 fusion transactivation (Human herpesvirus 1 VP16)
Test: nonselective repression of VP16-driven luciferase – cell-based, luminescence, dose response, powder samples, counter-screen for SRC3 inhibitor project, late-stage follow-up (AID 651781)
Conditions: HEK293 GAL4-VP16 UAS luciferase reporter

IC50	Compound
inactive	CN1C(=O)C2(C(C#N)=C(N)N(c3cc(Cl)cc(Cl)c3)C3=C2C(=O)CC(C)(C)C3)c2ccccc21 (stereo not drawn)
9.65 µM	CC(C)(C)c1ccc(-c2noc(CCC(=O)Nc3cccnc3)n2)cc1
inactive	O=C(Nc1ccccc1Oc1ccccc1)c1cc([N+](=O)[O-])ccc1Cl
> 35.9 µM (inactive)	O=C(COC(=O)c1ccc[nH]c1=O)Nc1ccc(N2CCCCC2)cc1
inactive	OCCN1CCN(C(=S)c2ccc(-c3ccccc3)cc2)CC1
inactive	Cc1ccc(OCC(=O)c2cc(C)n(-c3ccccc3)c2C)c([N+](=O)[O-])n1
inactive	CN1C(=O)C2(C(C#N)=C(N)N(c3cc(Cl)cc(Cl)c3)C3=C2C(=O)CCC3)c2ccccc21 (stereo not drawn)
6.04 µM	CCCNC(=O)c1nnsc1S(=O)(=O)c1ccc(Cl)cc1
